In ChEMBL document CHEMBL1201862, “PubChem BioAssay data set” (2004):
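A five-concentration, 48-hour dose response in 96-well plates underlies each endpoint, interpolated linearly between surrounding concentrations. GI50 is the concentration that inhibits growth by half.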 Calls of active or inactive are those of the source. Rule as the data show it: active = GI50 up to about 1.1 µM and inactive = higher.

Experiments:
Assay in all cases: growth of human tumour cells (NCI), 48 h
Malme-3M = system: Malme-3M
SF-295 = system: SF-295
SNB-19 = system: SNB-19
K562 = system: K562
KM12 = system: KM12
A549 = system: A549
OVCAR-5 = system: OVCAR-5
U-251 = system: U-251
MOLT-4 = system: MOLT-4
IGROV-1 = system: IGROV-1
SK-OV-3 = system: SK-OV-3
DMS-273 = system: DMS-273
OVCAR-3 = system: OVCAR-3
A498 = system: A498
HCT-116 = system: HCT-116
SK-MEL-28 = system: SK-MEL-28
CAKI-1 = system: CAKI-1

Measured: GI50

CCCCCCCC(=O)OCC1OC(OC)C(NC(=O)N(CCCl)N=O)C(O)C1O (stereo unspecified)
inactive: Malme-3M 13.3 µM | SF-295 4.07 µM | SNB-19 14.5 µM | K562 12.4 µM | KM12 9.89 µM | A549 9.91 µM | OVCAR-5 26.4 µM | U-251 4.91 µM | MOLT-4 3.05 µM | IGROV-1 21.7 µM | SK-OV-3 28.5 µM | DMS-273 2.9 µM | OVCAR-3 19.7 µM | A498 21.5 µM | HCT-116 3.22 µM | SK-MEL-28 33.3 µM | CAKI-1 9.08 µM

CCOC(=O)NC/C=C/COC1CCCCO1 (stereo unspecified)
inactive: Malme-3M > 100 µM | SNB-19 > 100 µM | K562 > 100 µM | KM12 > 100 µM | A549 > 100 µM | U-251 > 100 µM | MOLT-4 > 100 µM | IGROV-1 > 100 µM | SK-OV-3 > 100 µM | DMS-273 > 100 µM | A498 > 100 µM | HCT-116 > 100 µM | SK-MEL-28 > 100 µM | CAKI-1 > 100 µM

CCN1C2=NC(=O)N(C)C(=O)C2(Cl)C(C(SC)S(=O)(=O)c2ccc(C)cc2)c2ccccc21 (stereo unspecified)
inactive: Malme-3M 47.3 µM | SF-295 51.8 µM | SNB-19 51.9 µM | K562 20.7 µM | A549 85.1 µM | OVCAR-5 > 100 µM | U-251 79.8 µM | MOLT-4 3.7 µM | IGROV-1 76.9 µM | SK-OV-3 > 100 µM | DMS-273 31.6 µM | OVCAR-3 24.1 µM | A498 > 100 µM | HCT-116 20.1 µM | SK-MEL-28 24.3 µM | CAKI-1 34 µM

COc1ccc(C(=O)C(c2ccc(OCc3ccccc3)cc2)c2ccc(OCc3ccccc3)cc2)cc1
inactive: Malme-3M > 100 µM | SF-295 > 100 µM | SNB-19 > 100 µM | K562 > 100 µM | KM12 > 100 µM | A549 > 100 µM | OVCAR-5 > 100 µM | U-251 > 100 µM | MOLT-4 > 100 µM | IGROV-1 > 100 µM | SK-OV-3 > 100 µM | DMS-273 > 100 µM | OVCAR-3 > 100 µM | HCT-116 > 100 µM | SK-MEL-28 > 100 µM | CAKI-1 > 100 µM

COc1ccc(C(=C(C#N)C#N)c2ccc(OC)cc2)cc1
inactive: SF-295 > 100 µM | SNB-19 > 100 µM | K562 > 100 µM | KM12 > 100 µM | A549 > 100 µM | OVCAR-5 > 100 µM | U-251 > 100 µM | MOLT-4 > 100 µM | IGROV-1 > 100 µM | DMS-273 > 100 µM | OVCAR-3 > 100 µM | A498 > 100 µM | HCT-116 > 100 µM | SK-MEL-28 > 100 µM | CAKI-1 > 100 µM

COc1ccc(/C=C2\C(=O)Nc3ccccc32)cc1OC
inactive: Malme-3M > 100 µM | SF-295 > 100 µM | SNB-19 38.5 µM | K562 44.7 µM | KM12 85.7 µM | A549 > 100 µM | OVCAR-5 > 100 µM | U-251 28.9 µM | MOLT-4 > 100 µM | IGROV-1 > 100 µM | SK-OV-3 32 µM | DMS-273 64.7 µM | A498 > 100 µM | HCT-116 > 100 µM | SK-MEL-28 > 100 µM | CAKI-1 > 100 µM

O=C(N/C(=C\c1ccc(Cl)cc1)c1nc2ccccc2[nH]1)c1ccccc1
inactive: Malme-3M 34 µM | SNB-19 27.2 µM | K562 15.1 µM | KM12 16.8 µM | A549 25.4 µM | OVCAR-5 37.2 µM | U-251 22.2 µM | MOLT-4 16.5 µM | IGROV-1 19.4 µM | SK-OV-3 37.1 µM | DMS-273 21.1 µM | OVCAR-3 19.6 µM | A498 21.8 µM | HCT-116 13.7 µM | SK-MEL-28 18.5 µM | CAKI-1 20.6 µM

O=C1[C@@H]2C(c3ccccc3Br)=NO[C@@H]2C(=O)N1c1ccc(Cc2ccc(N3C(=O)[C@H]4C(c5ccccc5Br)=NO[C@H]4C3=O)cc2)cc1
inactive: Malme-3M > 100 µM | SF-295 > 100 µM | K562 > 100 µM | KM12 > 100 µM | A549 > 100 µM | OVCAR-5 > 100 µM | U-251 > 100 µM | MOLT-4 > 100 µM | IGROV-1 > 100 µM | SK-OV-3 > 100 µM | DMS-273 > 100 µM | OVCAR-3 > 100 µM | A498 > 100 µM | SK-MEL-28 > 100 µM | CAKI-1 > 100 µM

CCn1c(C)nc([N+](=O)[O-])c1Sc1ncc[nH]1
inactive: Malme-3M 20.1 µM | SF-295 > 100 µM | SNB-19 > 100 µM | K562 31.4 µM | KM12 > 100 µM | A549 > 100 µM | OVCAR-5 > 100 µM | U-251 44 µM | MOLT-4 16.7 µM | IGROV-1 71 µM | SK-OV-3 > 100 µM | DMS-273 57.1 µM | OVCAR-3 74.8 µM | A498 > 100 µM | HCT-116 43.2 µM | SK-MEL-28 31 µM | CAKI-1 68.1 µM

COC(=O)c1cc2c(=O)n(C)c3ccccc3n2c1C(=O)OC
inactive: Malme-3M > 100 µM | SF-295 34.3 µM | SNB-19 34.7 µM | K562 > 100 µM | KM12 63.1 µM | A549 66.4 µM | OVCAR-5 > 100 µM | U-251 24.1 µM | MOLT-4 > 100 µM | IGROV-1 56.6 µM | SK-OV-3 28.1 µM | DMS-273 51.6 µM | OVCAR-3 30 µM | A498 27.2 µM | SK-MEL-28 70.5 µM | CAKI-1 73.5 µM

C=CCC12CCC(=O)[C@@]1(C)CC=C(O)C2=O (stereo partly specified)
inactive: Malme-3M > 100 µM | SF-295 > 100 µM | SNB-19 > 100 µM | KM12 > 100 µM | A549 > 100 µM | OVCAR-5 > 100 µM | U-251 > 100 µM | MOLT-4 > 100 µM | IGROV-1 > 100 µM | SK-OV-3 > 100 µM | DMS-273 > 100 µM | OVCAR-3 > 100 µM | A498 > 100 µM | HCT-116 > 100 µM | SK-MEL-28 > 100 µM | CAKI-1 > 100 µM

COC(=O)C1C=CCON2CCc3c(n(S(=O)(=O)c4ccccc4)c4ccccc34)C12 (stereo unspecified)
inactive: Malme-3M > 64.7 µM | SF-295 59.4 µM | SNB-19 > 46.6 µM | K562 17.9 µM | KM12 35.2 µM | A549 50.1 µM | OVCAR-5 > 100 µM | U-251 25.2 µM | MOLT-4 26.9 µM | IGROV-1 > 55.3 µM | SK-OV-3 > 61.9 µM | DMS-273 48.8 µM | OVCAR-3 33.7 µM | A498 > 100 µM | HCT-116 39.3 µM | SK-MEL-28 > 100 µM | CAKI-1 57.3 µM
